Laboratory results from patent publication US6410537B1, “Compositions having neuroprotective and analgesic activity” (The United States of America as represented by the …, priority 1994, dated 2002).

Experiments:
[1] = Convulsive activity after intracerebral ventricular dosing; format: in vivo; details: rats; intracerebral ventricular dosages up to 800 μg
neuronal cell cultures = assay: Neuroprotection against glutamate toxicity in neuronal cell cultures, measured by LDH release; format: cell-based; details: for LDH release: mean ± s.e., 18 hours after glutamate exposure
Protocol: (§1) One particularly valuable enantiomer of the invention is the (+)-8 compound designated SNC80. […] To obtain better understanding of the benefits obtained by use of the compounds of the invention, beneficial effects of the compound were assessed in a model for evaluation of CNS excito-toxicity in an in vitro neuronal culture model. The neurotoxicity/neuroprotection was assessed 18 hours after exposure to the excitotoxin glutamate.
The neuroprotective effect of the SNC80 against glutamate toxicity in neuronal cell cultures was determined using a standard method of quantifying neuronal damage by measuring LDH release, since LDH is a […] enzyme released from damaged neurons into the culture media when neuronal cells are injured. One way in which neuronal cells may be damaged is by exposure to glutamate, a common agent used to induce neuronal damage. In the instant case, the damaging effect of gluamate on these cultures as shown to be overcome by exposure to an active agent of the invention.

neurons = assay: Antagonism of glutamate neurotoxic calcium flux (intracellular calcium response type); format: cell-based
Protocol: as §1

[2] = Glutamate (80 μM) + SNC80 20 μM
[3] = Glutamate (80 μM) + SNC80 40 μM

**Q.** Which Convulsive activity [1] does the source give for `C=CCN1C[C@H](C)N([C@H](c2ccc(C(=O)N(CC)CC)cc2)c2cccc(OC)c2)C[C@H]1C` [SNC80] here?
**A.** failed to elicit convulsive activity

**Q.** What about the “Neuroprotection (LDH measurements and morphological evaluation)” value (neuronal cell cultures; 18 hours after exposure to glutamate, compared to glutamate alone) of the same molecule?
**A.** concentration-dependent neuroprotection

**Q.** What about the “% neuroprotection” value (neuronal cell cultures; Glutamate (80 μM) + SNC80 5 μM) of the same molecule?
**A.** 17%

**Q.** What about the LDH release (neuronal cell cultures; Glutamate (80 μM) + SNC80 5 μM) of the same molecule?
**A.** 98.6 ± 4.5 Units ML

**Q.** And the “% neuroprotection” value (neuronal cell cultures; [2])?
**A.** 43%

**Q.** And the LDH release (neuronal cell cultures; [2])?
**A.** 91.0 ± 2.0 Units ML

**Q.** And the “% neuroprotection” value (neuronal cell cultures; [3])?
**A.** 63%

**Q.** And the LDH release (neuronal cell cultures; [3])?
**A.** 84.7 ± 3.4 Units ML

**Q.** And the “Response Type biphasic (number of neurons)” value (neurons; Glutamate + 50 μM, 10 neurons)?
**A.** 6

**Q.** What about the “Response Type sustained (neurotoxic) (number of neurons)” value (neurons; Glutamate + 50 μM, 10 neurons) of the same molecule?
**A.** 1

**Q.** What about the “Response Type transient (number of neurons)” value (neurons; Glutamate + 50 μM, 10 neurons) of the same molecule?
**A.** 3

**Q.** What about the “Response Type biphasic (number of neurons)” value (neurons; Glutamate + 100 μM, 21 neurons) of the same molecule?
**A.** 17

**Q.** What about the “Response Type sustained (neurotoxic) (number of neurons)” value (neurons; Glutamate + 100 μM, 21 neurons) of the same molecule?
**A.** 1

**Q.** What about the “Response Type transient (number of neurons)” value (neurons; Glutamate + 100 μM, 21 neurons) of the same molecule?
**A.** 3

**Q.** What about the “Intracellular Ca++ concentration as indicator of glutamate-induced neuronal injury” value (neurons; glutamate-treated neurons) of the same molecule?
**A.** beneficial shift in the intracellular Ca^++ concentration
